{
  "source": "patent US20050209201A1",
  "about": "“Method and composition for suppression of inflammation” (Shiseido Co., Ltd., priority 2004, published 2005)",
  "key": {"[1]": {"tested_on": "IL-8 gene expression in keratinocytes", "experiment": "IL-8 gene expression in keratinocytes (Taqman RT-PCR)", "type": "cell-based, human", "conditions": "Taqman-PCR normalized to GAPDH", "experimental": "(§1) Commercially available keratinocytes (Kurabo) were cultured in KGM-2 medium (Kurabo) according to the manufacturer's manual. The cells were seeded in a 12-well plate at 1.5×10^5 cells/well.\n(§2) Keratinocytes were treated with the test solution and cells treated for 6 hours were used. Total RNA was extracted from the cells by addition of ISOGEN (Nippon Gene) according to the manufacturer's manual. cDNA was prepared with M-MLV reverse transcriptase (Life Technologies, Rockville USA), using 1 μg of RNA as template.\n(§3) The gene sequence of the obtained cDNA was determined quantitatively by Taqman-PCR using an ABI PRISM 7700 Sequence Detector (Perkin Elmer) according to the manufacturer's manual, in the manner described in paragraph 11 of Japanese Unexamined Patent Publication (Kokai) No. 11-32799. The result was normalized on the basis of the expression level of human GAPDH (glyceraldehyde-3-phosphate dehydrogenase) used as an internal standard."}, "[2]": {"tested_on": "TNFα release from keratinocytes", "experiment": "ATP-induced TNFα release from keratinocytes (ELISA)", "type": "cell-based, human", "experimental": "as §1\n(§4) The medium in the 12-well plate was discarded on the day after seeding of the cells, and 24 hours after adding 2 ml of test solution dissolved in fresh medium, the culture supernatants were collected. The IL-6, IL-8, IL-1α and TNF concentrations in the recovered supernatants were measured using a commercially available ELISA kit (R&D Systems, USA).\nATP (10 μM-1 mM) dissolved in the culture medium was applied as a test solution to keratinocytes, and after 24 hours the culture supernatants were recovered and the inflammatory cytokine TNFα was assayed with an ELISA kit."}, "[3]": {"tested_on": "IL-8 release from keratinocytes", "experiment": "ATP-induced IL-8 release from keratinocytes (ELISA)", "type": "cell-based, human", "experimental": "as §1, §4\nATP (10 μM-1 mM) dissolved in the culture medium was applied as a test solution to keratinocytes, and after 24 hours the culture supernatants were recovered and the inflammatory cytokine IL-8 was assayed with an ELISA kit."}, "[4]": {"tested_on": "IL-6 release from keratinocytes", "experiment": "ATP-induced IL-6 release from keratinocytes (ELISA)", "type": "cell-based, human", "experimental": "as §1, §4\nATP (10 μM-1 mM) dissolved in the culture medium was applied as test solution to keratinocytes, and after 24 hours the culture supernatants were collected and the inflammatory cytokine IL-6 was assayed with the ELISA kit."}, "[5]": {"tested_on": "IL-6 gene expression in keratinocytes", "experiment": "IL-6 gene expression in keratinocytes (Taqman RT-PCR)", "type": "cell-based, human", "conditions": "Taqman-PCR normalized to GAPDH", "experimental": "as §1, §2, §3"}, "[6]": {"tested_on": "IL-1α release from keratinocytes", "experiment": "ATP-induced IL-1α release from keratinocytes (ELISA)", "type": "cell-based, human", "experimental": "as §1, §4\nATP (10 μM-1 mM) dissolved in the culture medium was applied as a test solution to keratinocytes, and after 24 hours the culture supernatants were collected and the inflammatory cytokine IL-1α was assayed with an ELISA kit."}, "[7]": {"tested_on": "IL-6 release in ultraviolet irradiated keratinocytes", "experiment": "Release of cytokine IL-6 in ultraviolet irradiated keratinocytes (ELISA)", "type": "cell-based, human", "experimental": "as §1, §4\n(§5) After discarding the medium, PBS(−) was added and UVB was irradiated at 30 or 60 mJ/cm^2. Following the irradiation, the PBS(−) was discarded, 2 ml of the medium or test solution dissolved in the medium was added, and the culture supernatants were collected after 24 hours.\nCells were exposed to ultraviolet irradiation. After 24 h, keratinocyte cell supernatants were collected and the content of IL-6 was assayed with an ELISA kit."}, "[8]": {"tested_on": "IL-8 release in ultraviolet irradiated keratinocytes", "experiment": "Release of cytokine IL-8 in ultraviolet irradiated keratinocytes (ELISA)", "type": "cell-based, human", "experimental": "as §1, §4, §5\nCells were exposed to ultraviolet irradiation. After 24 h, keratinocyte cell supernatants were collected and the content of IL-8 was assayed with an ELISA kit."}, "[9]": {"tested_on": "HR-1 mice", "experiment": "Confirmation test for inflammation suppressing effect: acetone barrier disruption in a dry environment, HE staining of dorsal skin", "type": "in vivo", "conditions": "dry environment (<10% RH), acetone-treated dorsal skin, coating with 1 mM Reactive blue 2, skin collected after 48 hours, control water", "experimental": "After raising HR-1 mice for 48 hours in a dry environment (<10% RH), the dorsal skin was acetone-treated to disrupt its skin barrier function, and then the skin was applied with 1 mM Reactive blue 2. Control animals were applied with water. After an additional 48 hours, the dorsal skins of both animal groups were collected. The skin tissue was fixed with formaldehyde and subjected to hematoxylin-eosin (HE) staining and observed under an optical microscope."}, "[10]": {"conditions": "ATP 30-1000 μM, concentration-dependent"}, "[11]": {"conditions": "ATP 10 μM-1 mM, 24 hours, ELISA, in proportion to concentration"}, "[12]": {"conditions": "ATP 10 μM-1 mM, 24 hours, ELISA, in proportion to ATP concentration"}, "[13]": {"conditions": "Reactive blue 2 100 μM, cells treated 6 hours"}, "[14]": {"conditions": "keratinocytes pretreated with 100 μM Reactive blue 2, ATP added 10 minutes later, supernatant after 24 hours, ELISA"}, "[15]": {"conditions": "keratinocytes pretreated with 30-100 μM Reactive blue 2, ATP added 10 minutes later, supernatant after 24 hours, ELISA"}, "[16]": {"conditions": "UVB irradiation 10 minutes after pretreatment with 100 μM Reactive blue 2, supernatant after 24 h, ELISA"}, "[17]": {"conditions": "pretreatment of the cells with suramin, data not shown"}},
  "data": [
    {"smiles": "Nc1ncnc2c1ncn2[C@@H]1O[C@H](COP(=O)(O)OP(=O)(O)OP(=O)(O)O)[C@@H](O)[C@H]1O", "note": "[ATP, adenosine triphosphate]", "values": [
      {"measurement": "IL-8 expression over non-stimulated cells (controls)", "setting": "[1]; [10]", "value": "significantly increased"},
      {"measurement": "TNFα in culture supernatant after addition of ATP", "setting": "[2]; [11]", "value": "significant increase"},
      {"measurement": "IL-8 in culture supernatant after addition of ATP", "setting": "[3]; [12]", "value": "significant increase"},
      {"measurement": "IL-6 in culture supernatant after addition of ATP", "setting": "[4]; [12]", "value": "significant increase"},
      {"measurement": "IL-6 expression over non-stimulated cells (controls)", "setting": "[5]; [10]", "value": "significantly increased"},
      {"measurement": "IL-1α in culture supernatant after addition of ATP", "setting": "[6]; [11]", "value": "significant increase"}
    ]},
    {"smiles": "Nc1c(S(=O)(=O)O)cc(Nc2ccc(Nc3nc(Cl)nc(Nc4cccc(S(=O)(=O)O)c4)n3)c(S(=O)(=O)O)c2)c2c1C(=O)c1ccccc1C2=O", "note": "[Reactive blue 2]", "values": [
      {"measurement": "ATP-induced increase in IL-8 gene expression", "setting": "[1]; [13]", "value": "significantly inhibited"},
      {"measurement": "ATP-induced increase in TNFα", "setting": "[2]; [14]", "value": "significantly inhibited"},
      {"measurement": "ATP-induced increase in IL-8", "setting": "[3]; [15]", "value": "significantly inhibited"},
      {"measurement": "ultraviolet irradiation-induced increase in IL-6", "setting": "[7]; [16]", "value": "significantly inhibited"},
      {"measurement": "ultraviolet irradiation-induced increase in IL-8", "setting": "[8]; [16]", "value": "significantly inhibited"},
      {"measurement": "epidermal hyperplasia after barrier disruption (HE staining)", "setting": "[9]", "value": "inhibits the epidermal hyperplasia"},
      {"measurement": "ATP-induced increase in IL-6", "setting": "[4]; [15]", "value": "significantly inhibited"},
      {"measurement": "ATP-induced increase in IL-6 gene expression", "setting": "[5]; [13]", "value": "significantly inhibited"},
      {"measurement": "ATP-induced increase in IL-1α", "setting": "[6]; [14]", "value": "significantly inhibited"}
    ]},
    {"smiles": "Cc1ccc(C(=O)Nc2ccc(S(=O)(=O)O)c3cc(S(=O)(=O)O)cc(S(=O)(=O)O)c23)cc1NC(=O)c1cccc(NC(=O)Nc2cccc(C(=O)Nc3cc(C(=O)Nc4ccc(S(=O)(=O)O)c5cc(S(=O)(=O)O)cc(S(=O)(=O)O)c45)ccc3C)c2)c1", "note": "[suramin]", "values": [
      {"measurement": "increase in TNFα release produced by ATP addition", "setting": "[2]; [17]", "value": "similarly inhibited"},
      {"measurement": "increase in IL-8 release produced by ATP addition", "setting": "[3]; [17]", "value": "similarly inhibited"},
      {"measurement": "increase in IL-6 release produced by ultraviolet irradiation", "setting": "[7]; [17]", "value": "similarly inhibited"},
      {"measurement": "increase in IL-8 release produced by ultraviolet irradiation", "setting": "[8]; [17]", "value": "similarly inhibited"},
      {"measurement": "increase in IL-6 release produced by ATP addition", "setting": "[4]; [17]", "value": "similarly inhibited"},
      {"measurement": "increase in IL-1α release produced by ATP addition", "setting": "[6]; [17]", "value": "similarly inhibited"}
    ]}
  ]
}
